Test results as given in patent publication US20170119020A1, “METHOD OF FEEDING AN ANIMAL” (CARGILL, INCORPORATED, priority 2014, published 2017).
Marks after values point to notes of the source that are not given here.

Key:
[1] = tested on: eggs and hatched chickens of Cobb broiler breeders; test: Hatchability, fertility and chick quality of eggs of Example 1 (Example 2); assay type: in vivo, chicken
Description: The eggs were stored based on breeder pen and storage day. Eggs were allocated to twelve trays and nine blocks, with each block representing a storage day. At E17, all eggs were candled and at E18, eggs were transferred from the incubator […] to […] baskets. […] (64.4° F.) and a relative humidity of 75%. At the start of the incubation period, the eggs were weighed and allocated into blocks, each block representing a storage day. Each block consisted of twelve experimental units, with each experimental unit indicating a group of ten eggs. Only intact eggs were included; cracked, dirty, or eggs with deformed shells were excluded from the experiment. The eggs were placed in a NatureForm NMC 2340 Incubator with automatic control of temperature and relative humidity. From E0 until E18, the eggs were placed in setter trolleys, which consist of two shelves with a capacity for thirteen trays each. Each tray has three flats of thirty eggs. During this period, the incubator start temperature was set to 37.5° C. and relative humidity to 54%. […] After the setter period (E0-E18), eggs were transferred to baskets in the […] based on the blocking structure in the setter. The eggs were placed into subdivisions of a hatching crate, per replicate, and following tray order per block. Each […] trolley has twelve baskets with a capacity for 180 eggs each. […] Egg weights were recorded per experimental unit at E0. At hatch (E21) the number of dead chickens, dead embryos and […] (internal and external) were recorded. Remaining non-hatched eggs were opened to determine age and cause of death. The number of hatched chickens was recorded per replicate, as well as average chick weight. Sex was determined by cloaca sexing, performed by a professional chicken-sexer. Hatchability was calculated as percentage of total and of fertile eggs (eggs which contained living embryos after E17). […] Only chickens with an average body weight, completely dry, showing active movement and with a good navel score were selected. […] Sample chickens were individually weighed and killed by cervical dislocation to measure remaining yolk-sac weights, yolk-free body mass (“YFBM”), chick length, and shank length of both shanks. Relative asymmetry was calculated according to the following formula: RA=(|L-R|/[(L+R)/2])×100.

[2] = tested on: sows and piglets; test: Total antioxidant status (TAS) in serum of sows and piglets (Example 10); assay type: in vivo, pig; settings: for Total antioxidant status (TAS) in serum of piglets: piglets at 21 days
From the text: (§1) The performance following criteria were monitored during the trial: (i) Sows response criteria (actual parity, farrowing rate, culled sows—number and reasons, wean-to-mating interval, farrowing rate in the next cycle); (ii) litter response criteria (number of piglets, total, alive, stillborn, mummies; weight of piglets and litters; survival). The following biochemical (blood) criteria were monitored during the trial for the sows (mating, farrowing and weaning), piglets 21st day: (i) glutathione peroxidase (GPx) activity; (ii) superoxide dismutase (SOD) activity; (iii) total antioxidant status (TAS); (iv) vitamin E content; (v) vitamin A content.
To determine the oxidative status, the blood samples were collected from sows and piglets into tubes with lithium anticoagulant—received whole blood for analysis. At the same time blood samples were taken for blood clot. They were centrifuged (1500 rpm, 15 Temp. 4° C.) and obtained serum was pipetted into separate tubes.
In studies of oxidative status of sows and piglets were used suitable to each of the indicators, the reagent kits from Sigma-Aldrich. Determination was made in accordance with the descriptions of the rules and procedures specified by the manufacturer.
The content of the TAS (total antioxidant status) were determined using the Antioxidant assay kit (Cat. No CS0790), the activity of SOD (superoxide dismutase) was determined using SOD determination kit 19160, the activity of GPx (glutathione Peroxide assai Cellular Activity Kit) Cat. No CGP1. The content of vitamins A and E by McMurray and Blanchflower 1979 (Journal of Chromatography 178, 525-531.). TAS
Serum samples (10 ul) in duplicate were incubated at room temperature for 5 minutes with the working solution of ABTS (2,2-azino-bis (3-ethylbenzthiazoline-6-sulfonic acid) (150 pl) and the solution with myoglobin (20 pl). Simultaneously the calibration curve was performed based on serial dilutions of Trolox equivalent in the range of 0.015 to 0.42 mM (mmol).
The formed a ferryl radical from myoglobin and hydrogen peroxide causes oxidation of ABTS and production of radical cation ABTS*. The resulting chromogen has a blue-green color. In the presence of antioxidants the radical cation is suppressed to an extent dependent on the activity of the antioxidant and the color intensity is decreased proportionally. The color was measured with a spectrophotometer at a wavelength of 405 nm.

[3] = tested on: sows (PIC) and their piglets; test: Litter performance (Example 10); assay type: in vivo, pig; settings: for Mortality: piglets until weaning
Description: Testing was performed on sows (primiparous and multiparous) of the same type of crossing (PIC). The trial comprised 52 sows in a system of continuous farrowing. Each group was consist of 13 animals. The trial ran from day 1 of pregnancy to remating in the next cycle.
Each group was fed with complete diets for pregnant sows (0-90 d) and for lactation sows (90 d of gestation-weaning) with different inclusion of vitamin E and tested product (see TABLE 43A) and lactation diets (see TABLE 43B)
as §1

[4] = tested on: Ross 308 male broilers; test: Grow out of offspring (Example 6); assay type: in vivo, chicken; settings: 160 versus 80 ppm in breeder diet
[5] = eggs of 28-29 week breeders of Example 1
[6] = Group 2: vitamin E 50/75 mg/kg sow diet
[7] = Group 3: vitamin E 100/150 mg/kg sow diet
[8] = 1st day, Group 2: vitamin E 50/75 mg/kg sow diet
[9] = 1st day, Group 3: vitamin E 100/150 mg/kg sow diet
[10] = Weaning, Group 2: vitamin E 50/75 mg/kg sow diet
[11] = Weaning, Group 3: vitamin E 100/150 mg/kg sow diet

`Cc1c(C)c2c(c(C)c1O)CCC(C)(CCCC(C)CCCC(C)CCCC(C)C)O2` (racemic) [Vitamin E, DL-α-tocopherol] was tested, and the “Chick Weight” value ([1]; at hatch) was 42.4 g, the “Chick Weight” value ([1]; dissected chickens) was 41.3 g and the “Chick length” value ([1]; dissected chickens) was 17.9 cm. For the same compound, the “Relative Assymetrie (shank)” value ([1]; dissected chickens) was 1.59, the “YFBM (yolk free body mass)” value ([1]; dissected chickens) was 36.2 g and the “Yolk weight” value ([1]; dissected chickens) was 4.92 g. The “Relative Chick Weight^1” value ([1]; dissected chickens, expressed as percentage of average egg weight) was 70.7%, the “Relative Chick Weight^2” value ([1]; dissected chickens, expressed as percentage of chick weight) was 11.8% and the Fertility [1, 5] was 92.6%. The Hatchability of fertile [1, 5] was 95.6%, the Hatchability of total [1, 5] was 88.6% and the “Relative chick weight” value ([1]; expressed as percentage of average egg weight) was 72.5%. For the same compound, the “Total antioxidant status (TAS) in serum of sows” value ([2]; Breeding, Group 2: vitamin E 50/75 mg/kg diet) was 1.26 mmol/L, the “Total antioxidant status (TAS) in serum of sows” value ([2]; Breeding, Group 3: vitamin E 100/150 mg/kg diet) was 1.29 mmol/L and the “Total antioxidant status (TAS) in serum of sows” value ([2]; Farrowing, Group 2: vitamin E 50/75 mg/kg diet) was 1.18^a mmol/L. The “Total antioxidant status (TAS) in serum of sows” value ([2]; Farrowing, Group 3: vitamin E 100/150 mg/kg diet) was 1.19^a mmol/L, the “Total antioxidant status (TAS) in serum of sows” value ([2]; Weaning, Group 2: vitamin E 50/75 mg/kg diet) was 1.18^B mmol/L and the “Total antioxidant status (TAS) in serum of sows” value ([2]; Weaning, Group 3: vitamin E 100/150 mg/kg diet) was 1.20^Ba mmol/L. For the same compound, the “Total antioxidant status (TAS) in serum of piglets” value [2, 6] was 1.16^B mmol/L, the “Total antioxidant status (TAS) in serum of piglets” value [2, 7] was 1.18^A mmol/L and the Litter weight [3, 8] was 18.50^a kg. The “Number of piglets per litter, Born alive” value [3, 8] was 12.82, the “Number of piglets per litter, Mummies” value [3, 8] was 0.18 and the “Number of piglets per litter, Stillborn” value [3, 8] was 1.36. The “Number of piglets per litter, Weak” value [3, 8] was 0.36, the Piglet weight [3, 8] was 1.44 kg and the Litter weight [3, 9] was 19.07^a kg. The “Number of piglets per litter, Born alive” value [3, 9] was 13.18, the “Number of piglets per litter, Mummies” value [3, 9] was 0.20 and the “Number of piglets per litter, Stillborn” value [3, 9] was 1.09. The “Number of piglets per litter, Weak” value [3, 9] was 0.40, the Piglet weight [3, 9] was 1.45 kg and the Litter weight [3, 10] was 83.96^b kg. For the same compound, the Piglet weight [3, 10] was 7.16 kg, the “Weaning Number of piglets per litter” value [3, 10] was 11.73 and the Litter weight [3, 11] was 84.33^b kg. For the same compound, the Piglet weight [3, 11] was 7.31 kg, the “Weaning Number of piglets per litter” value [3, 11] was 11.82 and the Mortality [3, 6] was 8.37%. The Mortality [3, 7] was 10.64%, the “feed to gain corrected for final bodyweight, worse for high versus low vitamin E treatment” value [4] was 2.6% and the “overall feed to gain, worse for high versus low vitamin E treatment” value [4] was 1.4%.
